Assays:
[1] = molecular target: T1, wild type transthyretin (WT-TTR) (Homo sapiens, UniProt P02766); test: WT-TTR amyloid fibril formation assay (turbidimetry, acid-induced); assay type: biochemical; conditions: pH 4.4, 72 hours; for Fibril Formation (%): WT-TTR 3.6 μM, 1:1 TTR-compound stoichiometry, 37° C., normalized to no-compound control (100%); for IC50: WT-TTR fixed at 3.6 μM, ten compound concentrations
T1 construct: made in house; host or cells: E. coli BL21 (DE3), pET23a plasmid
Description: (§1) The first set of evaluations is based on a fast, stagnant fibril formation assay that is used for the early screening of compounds, be they virtual screening hits or newly synthesized analogues. In this assay, a solution of the compound under test at 1.8, 3.6 or 7.2 μM is added to a solution of TTR at 3.6 μM, so that there is enough compound to bind to either one or both of TTR's binding sites. The pH of the resulting solution is then lowered to 4.4 to promote amyloidogenesis. The process of amyloid fibril formation over time is assessed by turbidimetry measurements at three different wavelengths (405, 450 and 490 nm, or at 550, 600 and 650 nm when the compound absorbs light at the previous wavelengths), using a spectrophotometer endowed with a BioTek microplate reader. The extent of fibril formation of each mixture is determined by normalizing a sample with the protein (TTR), in absence of compounds, which, at the end of 72 hours, represents 100% of amyloid fibril formation. In each experiment, each compound concentration is tested in triplicate. For each compound concentration and incubation time, the arithmetic mean of the triplicate experiments is calculated, as well as the arithmetic mean of the three measured wavelengths. High activity can be defined as a percentage of fibril formation below 10% at compound concentration 7.2 μM (TTR:compound stoichiometry 1:2) and below 40% at 3.6 μM (TTR:compound stoichiometry 1:1).
The in vitro activity of the compounds was assessed through a biochemical assay based on turbidimetry measurements, in which fibril formation is induced by acidification of the solution to pH 4.4 after incubation with the hit compound to be tested. The amount of amyloid fibrils formed is then monitored throughout 72 hours. Further details on this assay are provided in the “Evaluation of amyloid inhibition in vitro” subsection in “Materials and Methods”.
Experimental evaluation of the in vitro activity of virtual screening hits against amyloid fibril formation by TTR was carried out using a biochemical assay based on turbidimetry measurements. In this assay, fibril formation is induced by acidification of the solution to pH 4.4 after incubation with the hit compound to be tested. The amount of amyloid fibrils formed is monitored over 72 hours. Further details on the assay are provided in the “Evaluation of amyloid inhibition in vitro” subsection below.
(§2) Purchased virtual screening hits and all synthesized (optimization) derivatives were dissolved in DMSO to a final concentration of 10.8 mM to provide a primary stock solution. Several secondary stock solutions were prepared in DMSO by dilution of the primary stock solution and the concentrations were chosen depending on the effectiveness of the compound in inhibiting the TTR amyloid fibril formation.
(§3) The fibril formation assay was adapted to run in a high-throughput screening mode. For this purpose, 96-well microplates were used with a final assay volume of 100 μL.
(§4) One microLitre (μL) of different compound secondary stock solutions was added to 50 μL of a 7.2 μM wild type TTR (WT-TTR) or Val122Ile-TTR (V122I-TTR) solutions in 10 miliMolar (mM) sodium phosphate buffer, 100 mM KCl and 1 mM EDTA, pH 7.2, previously dialyzed against the same buffer solution. After 30 minutes of incubation at room temperature, the pH of the mixture was lowered to 4.4 with 49 μL of 200 mM acetate buffer, 100 mM KCl and 1 mM EDTA, pH 4.3.
(§5) The mixtures were incubated at 37° C. during 72 hours. Turbidity at 405 nm, 450 nm and 490 nm (or at 550, 600 and 650 nm when the test compound absorbs light at the previous wavelengths) was measured over time (0, 17, 24, 41, 48, 65 and 72 hours) using a BioTek Microplate Spectrophotometer to evaluate the extent of fibril formation. Immediately before the turbidity measurements, the mixtures were gently shacked during 1 minute to homogenize well and not damage the formed amyloid aggregates and fibrils.

[2] = molecular target: Val122Ile transthyretin (V122I-TTR) (Homo sapiens, UniProt P02766, V142I); test: V122I-TTR amyloid fibril formation assay (turbidimetry, acid-induced); assay type: biochemical; conditions: pH 4.4, 72 hours; for Fibril Formation (%): V122I-TTR 3.6 μM, 37° C.; for IC50: V122I-TTR fixed at 3.6 μM, ten compound concentrations
Description: as §1, §2, §3, §4
as §5, with “fibrils. The final turbidity was calculated as an average of the three wavelengths measured.” for “fibrils.”
In addition, control samples containing TTR with no inhibitor and 1% DMSO, as well as inhibitor in absence of TTR were tested and analyzed.
The extent of amyloid fibril formation data was normalized to TTR in the absence of inhibitor, assigned to be 100% fibril formation (or 0% amyloid inhibition) at the end of the experiment.
The extent of amyloid fibril formation throughout 72 hours was determined as described in the “Evaluation of amyloid inhibition in vitro” subsection above.
IC50 values were calculated from the inhibition curves obtained by fitting the values by a nonlinear curve method using the OriginPro7 (OriginLab Corporation, USA).

[3] = HepG2 cell viability, resazurin reduction assay; assay type: cell-based; conditions: human, HepG2 hepatoma cells, approximately 72 hours incubation, read-out: inhibitory dose (ID50), cell viability
From the text: Cell viability of HepG2 hepatoma cells was quantified in order to assess the toxicity of the compounds at increasing concentrations. The used assay is described in detail in the “Experimental Evaluation of Cytotoxicity of Compounds using Cell-based Assays” section in “Materials and Methods”. This is a relevant assessment not just to discard potential concerns of liver damage (which is a problem reported for many drugs) but also because of the long-term nature of the treatments that patients suffering from TTR-mediated amyloidoses need to undertake.
Adherent human hepatoma cells HepG2 were cultured in DMEM (Dulbecco's Modified Eagle's Medium) with 10% fetal bovine serum (FBS), 100 U/mL penicillin, […] streptomycin, and 1 mM sodium pyruvate. The cells were grown in 75 cm^2 culture flasks at 37° C., in an atmosphere of 5% CO2, and subcultured twice a week using a trypsin-EDTA solution.
Upon 3 to 4 days of growth and reaching approximately 90% confluence, HepG2 cells were plated in 96-well microplates with cell density of 12×10^3 cells/well and in a volume of 100 μL per well.
The compounds are dissolved in DMSO and subsequently diluted in DMEM (in 9 intermediate […] concentrations). After adhesion of HepG2 cells to the microplates, […] 100 μL of each solution of intermediate compound concentration were added to each well (in quadruplicate). Positive controls were done with 10 wells containing only cells; solvent controls resulted from the analysis of the three highest DMSO concentrations tested and were carried out in triplicate.
After addition of the compounds to the cells, the microplates were incubated for approximately 72 hours at 37° C. in an atmosphere of 5% CO2 until the cell viability assay was performed.
The cell viability of HepG2 cells in the presence of test compounds was assessed by the resazurin reduction assay. Resazurin is a redox indicator that is converted into resorufin through reduction reactions of metabolically active cells. In the oxidized form it presents a purplish blue color, while the reduced form presents a purple-pink color.
A stock solution of 0.01% resazurin in PBS is diluted 1:10 in incomplete RPMI 1640 cell medium (without addition of antibiotics and FBS). After washing the cells with 200 μL PBS containing Ca^2+ and Mg^2+, 200 μL of resazurin 0.001% are added to the wells. Control runs with incomplete RPMI 1640 medium only and (without cells) are done in triplicate. […]
To quantify the reduction of resazurin to resorufin, microplate absorbance readings were taken at two wavelengths, 540 nm (reduced form) and 630 nm (oxidized form), in a Biotek spectrophotometer microplate reader. The percentage of viable cells at each compound concentration is determined using the formula: […]

Structure (SMILES) | Fibril Formation (%) [1] | IC50 [1] | Fibril Formation (%) [2] | IC50 [2] | melting point | IC50 at 72 h [3] | inhibitory activity against TTR amyloid fibril formation compared with reference compounds (in words) ([1]; TTR 3.6 μM)
O=C(O)CN1C(=O)/C(=C/c2cc(Cl)cc(Cl)c2)SC1=S [AT50-A05, (Z)-3-hydroxycarbonylmethyl-5-(3′,5′-dichlorophenylmethylidene)-2-thioxothiazolidin-4-one] | 17% | 1.62 ± 0.13 µM | 28% | 2.32 µM | 272 to 273 °C |  | 
O=C(O)CN1C(=O)/C(=C/c2cc(F)c(O)c(F)c2)SC1=S [AT50-A06, (Z)-3-hydroxycarbonylmethyl-5-(3′,5′-difluoro-4′-hydroxyphenylmethylidene)-2-thioxothiazolidin-4-one] | 28% | 1.81 ± 0.4 µM |  |  | 221 to 222 °C | > 400 µM | 
O=C(O)CN1C(=O)/C(=C/c2cc(F)cc(F)c2)SC1=S [AT50-A12, (Z)-3-hydroxycarbonylmethyl-5-(3′,5′-difluorophenylmethylidene)-2-thioxothiazolidin-4-one] | 44% | 2.88 ± 0.24 µM | 91% | 7.8 µM | 225 to 227 °C |  | 
Cc1cc(/C=C2\SC(=S)N(CC(=O)O)C2=O)cc(C)c1O [AT50-A17, (Z)-3-hydroxycarbonylmethyl-5-(4′-hydroxy-3′,5′-dimethylphenylmethylidene)-2-thioxothiazolidin-4-one] | 27% | 2.37 ± 0.47 µM | 51% | 3.16 µM | 261 to 263 °C |  | 
O=C(O)CCCN1C(=O)/C(=C/c2cc(F)c(O)c(F)c2)SC1=S [AT50-C09, (Z)-5-(3′,5′-difluoro-4′-hydroxyphenylmethylidene)-3-(3′-hydroxycarbonylpropyl)-2-thioxothiazolidin-4-one] | 33% | 2.45 ± 0.35 µM | 48% | 3.19 µM | 207 to 209 °C |  | 
O=C(O)CCCN1C(=O)/C(=C/c2cc(Cl)c(O)c(Cl)c2)SC1=S [AT50-C10, (Z)-5-(3′,5′-dichloro-4′-hydroxyphenylmethylidene)-3-(3′-hydroxycarbonylpropyl)-2-thioxothiazolidin-4-one] | 27% | 1.87 ± 0.16 µM | 37% | 2.46 µM | 247 to 249 °C |  | 
Cc1cc(/C=C2\SC(=S)N(CCCC(=O)O)C2=O)cc(C)c1O [AT50-C11, (Z)-5-(4′-hydroxy-3′,5′-dimethylphenylmethylidene)-3-(3′-hydroxycarbonylpropyl)-2-thioxothiazolidin-4-one] | 26% | 2.43 ± 1.25 µM | 66% | 4.52 µM | 250 to 252 °C |  | 
O=C(O)CCN1C(=O)/C(=C/c2cc(F)c(O)c(F)c2)SC1=S [AT50-C13, (Z)-5-(3′,5′-difluoro-4′-hydroxyphenylmethylidene)-3-(2′-hydroxycarbonylethyl)-2-thioxothiazolidin-4-one] | 32% | 2.31 ± 0.45 µM | 36% | 2.6 µM | 216 to 217 °C |  | 
O=C(O)CCN1C(=O)/C(=C/c2cc(Cl)cc(Cl)c2)SC1=S [AT50-C14, (Z)-3-(2′-hydroxycarbonylethyl)-5-(3′,5′-dichlorophenylmethylidene)-2-thioxothiazolidin-4-one] | 26% | 1.95 ± 0.26 µM | 55% | 4.37 µM | 245 to 247 °C |  | 
O=C(O)CCN1C(=O)/C(=C/c2cc(Cl)c(O)c(Cl)c2)SC1=S [AT50-C15, (Z)-3-(2′-hydroxycarbonylethyl)-5-(3′,5′-dichloro-4′-hydroxyphenylmethylidene)-2-thioxothiazolidin-4-one] | 7% | 1.03 ± 0.1 µM | 17% | 1.62 µM | 259 to 260 °C |  | superior to that of 2OH-PCB80
Cc1cc(/C=C2\SC(=S)N(CCC(=O)O)C2=O)cc(C)c1O [AT50-C16, (Z)-3-(2′-hydroxycarbonylethyl)-5-(4′-hydroxy-3′,5′-dimethylphenylmethylidene)-2-thioxothiazolidin-4-one] | 24% | 2.29 ± 0.13 µM | 41% | 2.71 µM | 253 to 254 °C |  | 

— patent US11584727B2, “2-thioxothiazolidin-4-one derivatives active as transthyretin ligands and uses thereof” (BSIM Therapeutics, S.A., priority 2014, dated 2023)
